Data from article PMC5428881 (Chemical communications (Cambridge, England), 2011).

Test system: HeLa cells
Assay: Cell permeability by fluorescence activated cell sorting
Format: cell-based
Conditions: FACS, 10 μM N-terminally fluorescein-conjugated peptide, 2 versus 1

Sequence: LTFCRYWARLCS [compound 2]
- increase in mean fluorescence (cell permeability): 2.5 fold
